Data from the NIST ThermoML archive (doi:10.1016/j.jct.2018.11.005).
Numbers after ± are expanded uncertainties.

Conditions: Liquid; for mass density: Vibrating tube method; for speed of sound: Frequency=5 MHz, Single path-length method

CCC(=O)[O-].CC[NH2+]CCO [N-ethyl-2-hydroxyethylammonium propionate]
Conditions | mass density [kg/m3] | speed of sound [m/s]
298.14 K, 15000 kPa | 1058.3 ± 1.3 | –
298.14 K, 30000 kPa | 1063.5 ± 1.3 | –
298.15 K, 10000 kPa | 1057 ± 1.3 | –
298.15 K, 25000 kPa | 1061.8 ± 1.3 | –
298.15 K, 35000 kPa | 1064.6 ± 1.3 | –
298.16 K, 100 kPa | 1051.9 ± 1.2 | –
298.16 K, 20000 kPa | 1059.9 ± 1.3 | –
303.08 K, 35000 kPa | 1060.7 ± 1.3 | –
303.12 K, 30000 kPa | 1059.2 ± 1.3 | –
303.14 K, 20000 kPa | 1055.6 ± 1.3 | –
303.14 K, 25000 kPa | 1057.4 ± 1.3 | –
303.15 K, 100 kPa | – | 1566.6 ± 3.8
303.15 K, 1000 kPa | – | 1570.6 ± 3.8
303.15 K, 2000 kPa | – | 1574.6 ± 3.8
303.15 K, 3000 kPa | – | 1578.7 ± 3.8
303.15 K, 4000 kPa | – | 1582.8 ± 3.8
303.15 K, 5000 kPa | – | 1586.9 ± 3.8
303.15 K, 6000 kPa | – | 1589.6 ± 3.8
303.15 K, 7000 kPa | – | 1592.4 ± 3.8
303.15 K, 8000 kPa | – | 1595.1 ± 3.8
303.15 K, 9000 kPa | – | 1599.3 ± 3.8
303.15 K, 10000 kPa | 1052.1 ± 1.3 | 1603.5 ± 3.8
303.15 K, 11000 kPa | – | 1607.7 ± 3.8
303.15 K, 12000 kPa | – | 1611.9 ± 3.8
303.15 K, 13000 kPa | – | 1616.1 ± 3.8
303.15 K, 14000 kPa | – | 1620.3 ± 3.8
303.15 K, 15000 kPa | 1053.4 ± 1.3 | 1623.2 ± 3.8
303.15 K, 16000 kPa | – | 1627.4 ± 3.8
303.15 K, 17000 kPa | – | 1631.7 ± 3.8
303.15 K, 18000 kPa | – | 1634.6 ± 3.8
303.15 K, 19000 kPa | – | 1637.5 ± 3.8
303.15 K, 20000 kPa | – | 1640.4 ± 3.8
303.16 K, 100 kPa | 1046.7 ± 1.2 | –
313.07 K, 25000 kPa | 1047.8 ± 1.3 | –
313.07 K, 30000 kPa | 1049.6 ± 1.3 | –
313.07 K, 35000 kPa | 1051.4 ± 1.3 | –
313.09 K, 10000 kPa | 1041.8 ± 1.2 | –
313.09 K, 20000 kPa | 1045.6 ± 1.3 | –
313.11 K, 15000 kPa | 1043.2 ± 1.3 | –
313.14 K, 100 kPa | 1035.6 ± 1.2 | –
313.15 K, 100 kPa | – | 1535.6 ± 3.8
313.15 K, 1000 kPa | – | 1539.4 ± 3.8
313.15 K, 2000 kPa | – | 1543.3 ± 3.8
313.15 K, 3000 kPa | – | 1547.2 ± 3.8
313.15 K, 4000 kPa | – | 1552.4 ± 3.8
313.15 K, 5000 kPa | – | 1555 ± 3.8
313.15 K, 6000 kPa | – | 1560.3 ± 3.8
313.15 K, 7000 kPa | – | 1564.2 ± 3.8
313.15 K, 8000 kPa | – | 1568.2 ± 3.8
313.15 K, 9000 kPa | – | 1572.2 ± 3.8
313.15 K, 10000 kPa | – | 1576.2 ± 3.8
313.15 K, 11000 kPa | – | 1578.9 ± 3.8
313.15 K, 12000 kPa | – | 1583 ± 3.8
313.15 K, 13000 kPa | – | 1587.1 ± 3.8
313.15 K, 14000 kPa | – | 1591.1 ± 3.8
313.15 K, 15000 kPa | – | 1595.3 ± 3.8
313.15 K, 16000 kPa | – | 1599.4 ± 3.8
313.15 K, 17000 kPa | – | 1603.5 ± 3.8
313.15 K, 18000 kPa | – | 1607.7 ± 3.8
313.15 K, 19000 kPa | – | 1610.5 ± 3.8
313.15 K, 20000 kPa | – | 1614.7 ± 3.8
323.15 K, 100 kPa | 1024.4 ± 1.2 | 1504.9 ± 3.8
323.15 K, 1000 kPa | – | 1508.6 ± 3.8
323.15 K, 2000 kPa | – | 1512.4 ± 3.8
323.15 K, 3000 kPa | – | 1517.3 ± 3.8
323.15 K, 4000 kPa | – | 1522.4 ± 3.8
323.15 K, 5000 kPa | – | 1527.4 ± 3.8
323.15 K, 6000 kPa | – | 1531.2 ± 3.8
323.15 K, 7000 kPa | – | 1535 ± 3.8
323.15 K, 8000 kPa | – | 1538.9 ± 3.8
323.15 K, 9000 kPa | – | 1542.8 ± 3.8
323.15 K, 10000 kPa | – | 1546.6 ± 3.8
323.15 K, 11000 kPa | – | 1550.5 ± 3.8
323.15 K, 12000 kPa | – | 1555.7 ± 3.8
323.15 K, 13000 kPa | – | 1559.7 ± 3.8
323.15 K, 14000 kPa | – | 1563.6 ± 3.8
323.15 K, 15000 kPa | 1032.6 ± 1.2 | 1566.3 ± 3.8
323.15 K, 16000 kPa | – | 1570.3 ± 3.8
323.15 K, 17000 kPa | – | 1572.9 ± 3.8
323.15 K, 18000 kPa | – | 1575.6 ± 3.8
323.15 K, 19000 kPa | – | 1579.6 ± 3.8
323.15 K, 20000 kPa | 1035.2 ± 1.2 | 1583.7 ± 3.8
323.15 K, 25000 kPa | 1037.2 ± 1.3 | –
323.15 K, 30000 kPa | 1039.3 ± 1.3 | –
323.15 K, 35000 kPa | 1041.5 ± 1.3 | –
323.16 K, 10000 kPa | 1030.5 ± 1.2 | –
333.14 K, 10000 kPa | 1018 ± 1.2 | –
333.15 K, 100 kPa | – | 1485.5 ± 14
333.15 K, 1000 kPa | – | 1489.2 ± 14
333.15 K, 2000 kPa | – | 1494.2 ± 14
333.15 K, 3000 kPa | – | 1497.9 ± 14
333.15 K, 4000 kPa | – | 1500.5 ± 14
333.15 K, 5000 kPa | – | 1503 ± 3.8
333.15 K, 6000 kPa | – | 1508 ± 3.8
333.15 K, 7000 kPa | – | 1511.8 ± 3.8
333.15 K, 8000 kPa | – | 1514.4 ± 3.8
333.15 K, 9000 kPa | – | 1519.4 ± 3.8
333.15 K, 10000 kPa | – | 1523.2 ± 3.8
333.15 K, 11000 kPa | – | 1525.8 ± 3.8
333.15 K, 12000 kPa | – | 1530.9 ± 3.8
333.15 K, 13000 kPa | – | 1533.5 ± 3.8
333.15 K, 14000 kPa | – | 1536.1 ± 3.8
333.15 K, 15000 kPa | 1021 ± 1.2 | 1540 ± 3.8
333.15 K, 16000 kPa | – | 1542.6 ± 3.8
333.15 K, 17000 kPa | – | 1546.5 ± 3.8
333.15 K, 18000 kPa | – | 1550.4 ± 3.8
333.15 K, 19000 kPa | – | 1553 ± 3.8
333.15 K, 20000 kPa | – | 1555.6 ± 3.8
333.15 K, 30000 kPa | 1028.8 ± 1.2 | –
333.15 K, 35000 kPa | 1031.3 ± 1.2 | –
333.16 K, 100 kPa | 1011.9 ± 1.2 | –
333.16 K, 20000 kPa | 1023.7 ± 1.2 | –
333.16 K, 25000 kPa | 1026.2 ± 1.2 | –
343.14 K, 15000 kPa | 1008.7 ± 1.2 | –
343.14 K, 25000 kPa | 1014.3 ± 1.2 | –
343.15 K, 100 kPa | – | 1450.5 ± 3.8
343.15 K, 1000 kPa | – | 1454.2 ± 3.8
343.15 K, 2000 kPa | – | 1458 ± 3.8
343.15 K, 3000 kPa | – | 1461.8 ± 3.8
343.15 K, 4000 kPa | – | 1466.7 ± 3.8
343.15 K, 5000 kPa | – | 1470.5 ± 3.8
343.15 K, 6000 kPa | – | 1474.3 ± 3.8
343.15 K, 7000 kPa | – | 1478.1 ± 3.8
343.15 K, 8000 kPa | – | 1481.9 ± 3.8
343.15 K, 9000 kPa | – | 1485.7 ± 3.8
343.15 K, 10000 kPa | – | 1489.5 ± 3.8
343.15 K, 11000 kPa | – | 1493.3 ± 3.8
343.15 K, 12000 kPa | – | 1497.2 ± 3.8
343.15 K, 13000 kPa | – | 1501 ± 3.8
343.15 K, 14000 kPa | – | 1504.8 ± 3.8
343.15 K, 15000 kPa | – | 1507.4 ± 3.8
343.15 K, 16000 kPa | – | 1511.2 ± 3.8
343.15 K, 17000 kPa | – | 1516.3 ± 3.8
343.15 K, 18000 kPa | – | 1520.1 ± 3.8
343.15 K, 19000 kPa | – | 1524 ± 3.8
343.15 K, 20000 kPa | – | 1526.6 ± 3.8
343.17 K, 100 kPa | 998.8 ± 1.2 | –
343.17 K, 10000 kPa | 1004.6 ± 1.2 | –
343.17 K, 30000 kPa | 1017.4 ± 1.2 | –
343.19 K, 35000 kPa | 1020.1 ± 1.2 | –
343.21 K, 20000 kPa | 1011.2 ± 1.2 | –
353.15 K, 100 kPa | – | 1416 ± 3.8
353.15 K, 1000 kPa | – | 1419.9 ± 3.8
353.15 K, 2000 kPa | – | 1423.8 ± 3.8
353.15 K, 3000 kPa | – | 1428.9 ± 3.8
353.15 K, 4000 kPa | – | 1434 ± 3.8
353.15 K, 5000 kPa | – | 1438 ± 3.8
353.15 K, 6000 kPa | – | 1443.1 ± 3.8
353.15 K, 7000 kPa | – | 1447 ± 3.8
353.15 K, 8000 kPa | – | 1451 ± 3.8
353.15 K, 9000 kPa | – | 1456.1 ± 3.8
353.15 K, 10000 kPa | – | 1460 ± 3.8
353.15 K, 11000 kPa | – | 1465.1 ± 3.8
353.15 K, 12000 kPa | – | 1469 ± 3.8
353.15 K, 13000 kPa | – | 1471.8 ± 3.8
353.15 K, 14000 kPa | – | 1476.9 ± 3.8
353.15 K, 15000 kPa | – | 1480.8 ± 3.8
353.15 K, 16000 kPa | – | 1484.7 ± 3.8
353.15 K, 17000 kPa | – | 1488.6 ± 3.8
353.15 K, 18000 kPa | – | 1492.5 ± 3.8
353.15 K, 19000 kPa | – | 1496.4 ± 3.8
353.15 K, 20000 kPa | – | 1500.2 ± 3.8
